# Test results published in patent US9511057B2, “Methods for treating denervation-induced muscle atrophy” (THE BOARD OF TRUSTEES OF THE LELAND STANFORD JUNIOR …, priority 2013, dated 2016).
# Values joined by “and” are separate entries in the source; they are usually repeats but may differ in a detail not shown here. Identical values can stand only once.
# Test: Body weight and innervated muscle weight under rapamycin treatment (Table 2)
# Assay type: in vivo, mouse
# Set-up: key to Body weight before / Body weight after: body weight in g; Gastroc weight, innervated muscle: unit not given here
# Settings: for Gastroc weight, innervated muscle / TA weight, innervated muscle / sol (soleus) weight, innervated muscle / Body weight after / Body weight before: individual mice; for TA weight, innervated muscle, MEAN / sol (soleus) weight, innervated muscle, MEAN / Body weight after, MEAN / Body weight before, MEAN: mean of 6 mice; for Body weight after, MEAN / Body weight before, MEAN: in g
# Procedure: Rapamycin (LC Laboratories; Woburn, Mass.) was initially dissolved in 100% ethanol, stored at −20° C., and further diluted in an aqueous solution of 5.2% Tween 80 and 5.2% PEG 400 (final ethanol concentration, 2%) immediately before use (Wendel et al., 2004). Denervated NSA mice (male, 40 g) were injected immediately with rapamycin i.p. at 1.5 mg/kg, or 6 mg/kg body weight, every other day. Control mice were injected with vehicle with the same amount of ethanol solvent with rapamycin group (6 mg·kg). Muscle samples were collected 15 days later. Muscle wet weight was recorded immediately. For immunostaining, muscles were frozen in OCT in dry ice-cold isopentane. For RNA and protein extraction, muscles were quickly frozen in liquid nitrogen. Student t-test was used to evaluate the statistical significance. P<0.05 was considered as statistically significant. Each of these experiments were performed such that there were 3 to 6 separate experimental mice (for each genotype, dose, and time-point) and 3-6 separate control mice per experiment.
# [1] = Inn + 1.5 (rapamycin 1.5 mg/kg i.p. every other day, 15 days), in g (unit assumed)
# [2] = Inn + 1.5 (rapamycin 1.5 mg/kg), in g (unit assumed)
# [3] = Inn + 6 (rapamycin 6 mg/kg i.p. every other day, 15 days)
# [4] = Inn + 6 (rapamycin 6 mg/kg), in g (unit assumed)
# [5] = rapamycin at the doses used (1.5 or 6 mg/kg i.p. every other day)
smiles,measurement,setting,value
"CO[C@H]1C[C@@H]2CC[C@@H](C)[C@@](O)(O2)C(=O)C(=O)N2CCCC[C@H]2C(=O)O[C@H]([C@H](C)C[C@@H]2CC[C@@H](O)[C@H](OC)C2)CC(=O)[C@H](C)/C=C(\C)[C@@H](O)[C@@H](OC)C(=O)[C@H](C)C[C@H](C)/C=C/C=C/C=C/1C [rapamycin, Rapamycin]","Gastroc weight, innervated muscle","Inn + 1.5 (rapamycin 1.5 mg/kg i.p. every other day, 15 days)",0.1984 and 0.2043 and 0.2062 and 167.3 and 196.7
same,"TA weight, innervated muscle",[1],0.0719 and 0.0697 and 0.068 and 0.0898 and 0.0795 and 0.0597
same,"sol (soleus) weight, innervated muscle",[1],0.0114 and 0.0095 and 0.0099 and 0.0106 and 0.0102 and 0.0075
same,"TA weight, innervated muscle, MEAN",[2],0.0731
same,"sol (soleus) weight, innervated muscle, MEAN",[2],0.00985
same,"Gastroc weight, innervated muscle",[3],0.2084 and 0.2168 and 0.1798 and 217.7 and 230.5
same,"sol (soleus) weight, innervated muscle",[3],0.0102 and 0.0116 and 0.0106 (3×) and 0.0115
same,"TA weight, innervated muscle","Inn + 6 (rapamycin 6 mg/kg i.p. every other day, 15 days), in g (unit assumed)",0.0686 and 0.0751 and 0.0645 and 0.078 and 0.0713 and 0.0759
same,"TA weight, innervated muscle, MEAN",[4],0.07223
same,"sol (soleus) weight, innervated muscle, MEAN",[4],0.01085
same,Body weight after,"Rapa − 1.5, after",45 and 46 and 42 (2×) and 40 and 39
same,"Body weight after, MEAN","Rapa − 1.5, after",42.33
same,Body weight before,"Rapa − 1.5, before",41 g (2×) and 46 g and 44 g and 42 g (2×)
same,"Body weight before, MEAN","Rapa − 1.5, before",42.67
same,Body weight after,"Rapa − 6, after, in g (unit assumed)",46 and 38 and 41 and 42 and 40 and 39
same,"Body weight after, MEAN","Rapa − 6, after",41
same,Body weight before,"Rapa − 6, before, in g (unit assumed)",39 and 42 and 55 and 43 and 41 and 44
same,"Body weight before, MEAN","Rapa − 6, before",44
same,influence on body weight,[5],did not influence
same,influence on innervated muscle weight,[5],does not change
same,influence on innervated muscle weight,"rapamycin at the doses used (1.5 or 6 mg/kg i.p. every other day), listed as Rapamycin",did not influence
